{
  "source": "patent US20260243775A1",
  "about": "“CELL LABELING AND ANNOTATION IN MICRO-ORGANOSPHERES” (Xilis, Inc., priority 2023, published 2026)",
  "tested_on": "CRC cells co-encapsulated with fibroblasts, endothelial cells, and PBMCs in MOS",
  "assay": "Live/dead staining (Calcein AM / ethidium homodimer) of EpCAM-stained MOS after drug treatment",
  "type": "cell-based",
  "conditions": "higher dose (33.3 μM) versus 1.23 μM, treated for three days, FIG. 3A",
  "excerpt": "FIG. 3A includes representative images showing live MOS staining of CRC cells co-encapsulated with fibroblasts, endothelial cells, and PBMCs, stained with EpCAM and treated with vehicle or oxaliplatin for three days, followed by staining with Calcein AM (CAM) and ethidium homodimer (EtH). FIG. 3B is a graph plotting differential drug responses observed for the CRC only condition and for CRCs co-encapsulated with the non-cancer cells, measured by CTG assay.\nAdditional images of stained live MOS are shown in FIG. 3A, which includes representative images of live MOS containing CRC cells co-encapsulated with fibroblasts, endothelial cells, and PBMCs, where the MOS were stained with EpCAM and treated with vehicle or oxaliplatin (1.23 μM or 33.3 μM) for three days, followed by staining with Calcein AM (CAM) and ethidium homodimer (EtH). […] When MOS encapsulating only CRC cells or MOS co-encapsulating CRC cells, fibroblasts, endothelial cells, and PBMCs were treated with oxaliplatin, differential responses to the treatment were observed between the CRC-only MOS and the co-encapsulated MOS, as determined by CTG assay (FIG. 3B). However, the drug responses of the CRC-only MOS versus the CRC/non-cancer cell co-encapsulated MOS were much more similar based on live cell dye (CAM): dead cell dye (EtH) ratios from EpCAM positive (FIG. 3C).",
  "data": [
    {"smiles": "O=C1[O][Pt]2([NH][C@@H]3CCCC[C@H]3[NH]2)[O]C1=O", "note": "[oxaliplatin]", "values": [
      {"measurement": "EtH (dead) and Calcein AM (live) staining, degree of killing", "result": "a greater degree of killing"}
    ]}
  ]
}
